{"source": "PubChem BioAssay AID1259409", "about": "(Chemical Carcinogenesis Research Information System (CCRIS), 2018)", "origin": "cited, not measured here", "system": "rodent chemically induced tumor inhibition, incidence and multiplicity", "experiment": "CCRIS tumor inhibitor studies", "settings": "Carcinogen: DIETHYLNITROSAMINE, 55-18-5, 684-93-5, N-BUTYL-N-(4-HYDROXYBUTYL)NITROSAMINE, 3817-11-6, Carcinogen: DIETHYLNITROSAMINE, 55-18-5, 684-93-5, N-BUTYL-N-(4-HYDROXYBUTYL)NITROSAMINE, 3817-11-6, Dose [Inhibitor]: 0, Route [Inhibitor]: ORAL, Species: RAT"}
{"compound": "CCCCCCCCCCCCC(=O)COC1=C(O)C(=O)O[C@@H]1[C@@H](O)CO", "values": [{"measurement": "tumour outcome (control, treated, inhibition, significance)", "setting": "N-METHYL-N-NITROSOUREA, DIMETHY, N-METHYL-N-NITROSOUREA, DIMETHY, 1% IN THE DIET FOR 24 WK BEGINNING 1 DAY POST CARCINOGEN TREATMENT (STUDY DURATION: 28 WK), Strain/Sex: F344/MALE, Target Tissue: Type of Lesion: URINARY BLADDER: PAPILLOMA, Dose [Carcinogen]: 100 MG/KG BW DEN ONCE FOLLOWED BY 20 MG/KG BW MNU 4 TIMES AND 0.05% BBN IN DRINKING WATER DURING FIRST 2 WK THEN 40 MG/K, Promoter: NONE USED", "value": "7%, 0%, 100%, not significant"}, {"measurement": "tumour outcome (control, treated, inhibition, significance)", "setting": "N-METHYL-N-NITROSOUREA, DIMETHY, N-METHYL-N-NITROSOUREA, DIMETHY, 1% IN THE DIET FOR 30 D BEGINNING 1 D PRIOR TO CARCINOGEN TREATMENT (STUDY DURATION: 28 WK), Strain/Sex: F344/MALE, Target Tissue: Type of Lesion: THYROID: CARCINOMA, Dose [Carcinogen]: 100 MG/KG BW DEN ONCE FOLLOWED BY 20 MG/KG BW MNU 4 TIMES AND 0.05% BBN IN DRINKING WATER DURING FIRST 2 WK THEN 40 MG/K, Promoter: NONE USED", "value": "7%, 0%, 100%, not significant"}, {"measurement": "tumour outcome (control, treated, inhibition, significance)", "setting": "N-METHYL-N-NITROSOUREA, DIMETHY, N-METHYL-N-NITROSOUREA, DIMETHY, 1% IN THE DIET FOR 30 D BEGINNING 1 DAY PRIOR TO CARCINOGEN TREATMENT (STUDY DURATION: 28 WK), Strain/Sex: F344/ MALE, Target Tissue: Type of Lesion: URINARY BLADDER: PAPILLOMA, Dose [Carcinogen]: 100 MG/KG BW DEN ONCE FOLLOWED BY 20 MG/KG BW MNU 4 TIMES AND 0.05% BBN IN DRINKING WATER DURING FIRST 2 WK THEN 40 MG/K, Promoter: NONE USED", "value": "7%, 0%, 100%, not significant"}, {"measurement": "tumour outcome (control, treated, inhibition, significance)", "setting": "N-METHYL-N-NITROSOUREA, DIMETHY, N-METHYL-N-NITROSOUREA, DIMETHY, 1% IN THE DIET FOR 30 D BEGINNING 1 DAY PRIOR TO CARCINOGEN TREATMENT (STUDY DURATION: 28 WK), Strain/Sex: F344/MALE, Target Tissue: Type of Lesion: LARGE INTESTINE: CARCINOMA, Dose [Carcinogen]: 100 MG/KG BW DEN ONCE FOLLOWED BY 20 MG/KG BW MNU 4 TIMES AND 0.05% BBN IN DRINKING WATER DURING FIRST 2 WK THEN 40 MG/K, Promoter: NONE USED", "value": "7%, 7%, 0%, not significant"}, {"measurement": "tumour outcome (control, treated, inhibition, significance)", "setting": "N-METHYL-N-NITROSOUREA, DIMETHY, N-METHYL-N-NITROSOUREA, DIMETHY, 1% IN THE DIET FOR 30 D BEGINNING 1 DAY PRIOR TO CARCINOGEN TREATMENT (STUDY DURATION: 28 WK), Strain/Sex: F344/MALE, Target Tissue: Type of Lesion: SMALL INTESTINE: ADENOMA, Dose [Carcinogen]: 100 MG/KG BW DEN ONCE FOLLOWED BY 20 MG/KG BW MNU 4 TIMES AND 0.05% BBN IN DRINKING WATER DURING FIRST 2 WK THEN 40 MG/K, Promoter: NONE USED", "value": "33%, 21%, 36%, not significant"}, {"measurement": "tumour outcome (control, treated, inhibition, significance)", "setting": "N-METHYL-N-NITROSOUREA, DIMETHY, N-METHYL-N-NITROSOUREA, DIMETHY, 1% IN THE DIET FOR 30 DAYS BEGINNING 1 D PRIOR TO CARCINOGEN TREATMENT (STUDY DURATION: 28 WK), Strain/Sex: F344/MALE, Target Tissue: Type of Lesion: SMALL INTESTINE: CARCINOMA, Dose [Carcinogen]: 100 MG/KG BW DEN ONCE FOLLOWED BY 20 MG/KG BW MNU 4 TIMES AND 0.05% BBN IN DRINKING WATER DURING FIRST 2 WK THEN 40 MG/K, Promoter: NONE USED", "value": "7%, 14%, -100%, not significant"}, {"measurement": "tumour outcome (control, treated, inhibition, significance)", "setting": "N-METHYL-N-NITROSOUREA, DIMETHY, N-METHYL-N-NITROSOUREA, DIMETHY, 1% IN THE DIET FOR 30 DAYS BEGINNING 1 DAY PRIOR TO CARCINOGEN TREATMENT (STUDY DURATION: 28 WK), Strain/Sex: F344/MALE, Target Tissue: Type of Lesion: URINARY BLADDER: CARCINOMA", "value": "7%, 0%, 100%, not significant"}, {"measurement": "tumour outcome (control, treated, inhibition, significance)", "setting": "N-METHYL-NITROSOUREA, DIMETHYLH, N-METHYL-NITROSOUREA, DIMETHYLH, 1% IN THE DIET FOR 30 DAYS BEGINNING 1 DAY PRIOR TO CARCINOGEN TREATMENT (STUDY DURATION: 28 WK), Strain/Sex: F344/MALE, Target Tissue: Type of Lesion: LARGE INTESTINE: ADENOMA, Dose [Carcinogen]: 100 MG/KG BW DEN ONCE FOLLOWED BY 20 MG/KG BW MNU 4 TIMES AND 0.05% BBN IN DRINKING WATER DURING FIRST 2 WK THEN 40 MG/K, Promoter: NONE USED", "value": "27%, 29%, -7%, not significant"}]}
